The text below walks through data of patent publication US10351594B2, “Process for preparing compounds having triple activities of thrombolysis, antithrombosis, and radical scavenging” (Shanghai Lumosa Therapeutics Co., Ltd., priority 2013, dated 2019).

Test [1] can be described thus: Superoxide anionic radical scavenging activity (xanthine/xanthine oxidase, DMPO). In kind it is biochemical. As to conditions: n = 6. The protocol:
[…] xanthine was dissolved in 1 mL of pure water to obtain 0.5 M xanthine solution (milk white color, largely insoluble). Commercially available raw solution of xanthine oxidase was diluted 10 folds to obtain solution of xanthine oxidase. Saturated DETAPAC solution was diluted 20 folds to obtain 0.9 mM solution. 11.316 mg DMPO was dissolved in 1 mL of pure water to obtain 0.1 M DMPO solution.
5 μL DMPO solution+5 μL DETAPAC solution+5 μL xanthine solution+5 μL xanthine oxidase solution+5 μL compounds 5Aa-p solution
The first peak height of superoxide anion signal of 5 μL DMPO solution+5 μL DETAPAC solution+5 μL xanthine solution+5 μL xanthine oxidase solution+5 μL water was measured and repeated for 6 times. This peak height defined as the known peak height of superoxide anion signal. The first peak height of superoxide anion signal of 5 μL DMPO solution+5 μL DETAPAC solution+5 μL xanthine solution+5 μL xanthine oxidase solution+5 μL solution of one of compounds 5Aa-p was measured and repeated for 6 times. This peak height defined as the residual peak height of the superoxide anion signal scavenged by one of the compounds 5Aa-p. Scavenging ratio=(known peak height of superoxide anion signal−residual peak height of superoxide anion signal of compounds 5Aa-p)/known peak height of superoxide anion signal

Test [2] can be described thus: Hydroxyl free radical scavenging activity (DMPO signal peak height). The format is biochemical. As to conditions: n = 6; read-out: EC50 of scavenging •OH. The protocol:
11.316 mg DMPO ([…], Sigma) was dissolved in 1 mL of pure water to obtain 0.1 M DMPO solution. […] FeSO4.7H2O was dissolved in 1 mL of pure water to obtain 10 mM solution. 30% medical H2O2 was diluted to 0.2%.
The first peak height of the OH signal of 2.5 μL FeSO4.7H2O solution+2.5 μL DMPO solution+5 μL H2O2 solution+5 μL water was measured and repeated for 6 times. This peak height defined as the known peak height of OH signal. The first peak height of the OH signal of 2.5 μL FeSO4.7H2O solution+2.5 μL DMPO solution+5 μL H2O2 solution+5 μL solution of one of the compounds 5Aa-p was measured and repeated for 6 times. This peak height defined as the residual peak height of the OH signal scavenged by one of the compounds 5Aa-p. Scavenging ratio=(known peak height of OH signal−residual peak height of OH signal of compounds 5Aa-p)/known peak height of OH signal

Test [3] is described as follows: NO radical scavenging activity (MGD/SNAP signal peak height). The following applies: n = 6. In kind it is biochemical. The protocol:
7.325 mg MGD (N-methyl-glucamine dithiocarbamate, Sigma) was dissolved in 1 mL of pure water to obtain 25 mM MGD solution. […] FeSO4.7H2O was dissolved in 1 mL of pure water to obtain 12.5 mM solution. […] SNAP (S-Nitroso-acetyl penicillamine) was dissolved in 1 mL of pure water to obtain 110 μM green mother liquid, which was diluted 100 folds to obtain 1 μM SNAP solution.
The first peak height of NO signal of 5 μL MGD solution+5 μL FeSO4.7H2O solution+5 μL SNAP solution+5 μL water was measured and repeated for 6 times. This peak height defined as the known peak height of NO signal. The first peak height of NO signal of 5 μL MGD solution+5 μL FeSO4.7H2O solution+5 μL SNAP solution+5 μL solution of one of the compounds 5Aa-p was measured and repeated for 6 times. This peak height defined as the residual peak height of the NO signal scavenged by one of the compounds 5Aa-p. Scavenging ratio=(known peak height of NO signal−residual peak height of NO signal of compounds 5Aa-p)/known peak height of NO signal

Test [4] relates to thrombus (rat arteriovenous bypass thrombolysis model). Briefly: Thrombolytic activity via intravenous administration, rat arteriovenous bypass thrombolysis model. The format is in vivo, male SD rats. The following applies: for Weight reduction in thrombus: n = 10; for Thrombolytic activity, result in words: intravenous, 0.1 nmol/kg (5Ak also 0.01 and 0.001 nmol/kg), urokinase 20000 U/kg. The protocol:
200-220 g male SD rats were anesthetized with 20% urethane solution (6 mL/kg, ip). Anesthetized rats were fixed in a supine position, and the right common carotid artery was separated, clamped at the proximal end with an arterial clip, and penetrated with a suture at the proximal and distal ends, respectively. The suture at the distal end is clipped tightly by a hemostatic clamp at the skin/fur. Cannulation was performed at the distal end, the arterial clamp was loosened, and about 1 ml arterial blood was discharged into a 1 mL EP vial. 0.1 mL rat arterial blood was injected into a vertically fixed glass tube (15 mm in length, with an inner diameter of 2.5 mm and an outer diameter of 5.0 mm, sealed with a rubber stopper at the bottom), into which was immediately inserted a thrombus immobilization screw made of stainless steel. […] 40 min after the blood coagulated, the rubber stopper at the bottom of the glass tube was removed, the stem of the thrombus immobilization screw was fixed by forceps, and the thrombus-wrapped thrombus immobilization screw was carefully taken out from the glass tube and precisely weighted.
A bypass cannula was composed of 3 segments. The middle segment was a polyethylene tube having a length of 60 mm and an inner diameter of 3.5 mm. The segments on both ends were similar polyethylene tubes having a length of 100 mm, an inner diameter of 1 mm and an outer diameter of 2 mm, one end of which was pulled to form a tip, with an outer diameter of 1.0 mm (used in inserting into the rat carotid artery or vein), the other end of which was sheathed by a polyethylene tube having a length of 7 mm and an outer diameter of 3.5 mm (thickened, used in inserting into the polyethylene tube of the middle segment). The inner wall of the 3-segment cannula was entirely silylated. The thrombus-wrapped thrombus immobilization screw was placed into the polyethylene tube of the middle segment, and both ends of the tube sheath the thickened ends of two polyethylene tubes. The cannula was filled with a heparin solution in normal saline (50 IU/kg) through the tip end by using an injector and was ready for use.
The left external jugular vein of the rat was separated and penetrated with a suture at the proximal and distal ends respectively, and the distal end was ligated. An incision was carefully made on the exposed left external jugular vein, and the tip of the bypass cannula prepared as described above was inserted into the proximal end of the incision in the left external jugular vein, away from the stem of the thrombus immobilization screw in the middle segment of the bypass cannula (which accommodated the accurately weighed thrombus immobilization screw). A precise amount of heparin in saline (50 IU/kg) was injected through the tip at the other end by using an injector. At this moment, without removing the injector from the polyethylene tube, the tube between the injector and the polyethylene tube was clamped with a hemostatic clamp. The blood flow was stopped by clamping the proximal end of the right common carotid artery with an arterial clip, and an incision was cut carefully across the common carotid artery near the clip. The injector was pulled out of the polyethylene tube through the tip, and the tip of the polyethylene tube was then inserted into the proximal end of the artery incision. Both ends of the bypass cannula were fixed to the artery or vein with #4 sutures.
A scalp needle was used to pass saline solution, a urokinase in saline solution or varied concentrations of the compounds in saline solution through the middle section of the bypass cannula (which accommodated the accurately weighed thrombus immobilization screw) to a position at the proximal vein and away from the thrombus immobilization screw. The artery clip was then removed to allow blood to flow from the artery to the vein through the bypass cannula. A rat arteriovenous bypass thrombolysis model was thus established. […]

[5] abbreviates: rat, intravenous injection, 5Aa-p 0.1 nmol/kg, 1 hour.

Entries after “also recorded” stand apart in the source; their conditions may differ. Marks after values point to notes of the source that are not given here.

What is called EC50 is the concentration giving half of the maximal effect. Regarding `CC[C@H](C)[C@H](NC(=O)[C@H](C)NC(=O)[C@@H]1CCCN1)C(=O)NCCCC[C@H](NC(=O)[C@@H]1Cc2cc(O)c(O)cc2C(C)(C)N1)C(=O)O` [Compound 5Ai, 3S-6,7-dihydroxy-1,1-dimethyl-1,2,3,4-tetrahydro-isoquinoline-3-acyl-Lys(Pro-Ala-Ile)], the values for the concentration for a half-maximal effect (EC50) in test [1], in test [2] and in test [3] were 452 ± 64 µM, 495 ± 61 µM and 527 ± 90 µM, respectively. In addition, in test [4] (setting [5]), the “Weight reduction in thrombus” value is 16.00 ± 2.03^a mg.
Regarding `C[C@H](NC(=O)[C@@H]1CCCN1)C(=O)N[C@H](C(=O)NCCCC[C@H](NC(=O)[C@@H]1Cc2cc(O)c(O)cc2C(C)(C)N1)C(=O)O)[C@@H](C)O` [Compound 5Aj, 3S-6,7-dihydroxy-1,1-dimethyl-1,2,3,4-tetrahydro-isoquinoline-3-acyl-Lys(Pro-Ala-Thr)], the EC50 in test [1] turned out to be 417 ± 95 µM; in test [2], 416 ± 28 µM; in test [3], 510 ± 75 µM. The “Weight reduction in thrombus” value in test [4] (setting [5]) is given as 15.23 ± 2.45^a mg.
Regarding `C[C@H](NC(=O)[C@@H]1CCCN1)C(=O)N[C@@H](CCCCN)C(=O)NCCCC[C@H](NC(=O)[C@@H]1Cc2cc(O)c(O)cc2C(C)(C)N1)C(=O)O` [Compound 5Ak, 3S-6,7-dihydroxy-1,1-dimethyl-1,2,3,4-tetrahydro-isoquinoline-3-acyl-Lys(Pro-Ala-Lys)], the EC50 amounted to 363 ± 94 µM in test [1], 422 ± 82 µM in test [2] and 499 ± 89 µM in test [3]. Further, the “Weight reduction in thrombus” value in test [4] (Table 2, 5Ak 0.001 nmol/kg i.v.) is 11.73 ± 2.15 ^c mg; in test [4] (Table 2, 5Ak 0.01 nmol/kg i.v.) it was 14.62 ± 2.46 b mg; in test [4] (Table 2, 5Ak 0.1 nmol/kg i.v.), 21.61 ± 4.62^a mg; in test [4] (setting [5]), 19.38 ± 2.81^b mg. In test [4] (rat), the “Thrombolytic activity, result in words” value is on record as “comparable to that of urokinase; also recorded: higher thrombolytic activity; also recorded: highest thrombolytic activity; also recorded: obvious dose-effect relationship”.
With `CC(C)C[C@H](NC(=O)[C@H](C)NC(=O)[C@@H]1CCCN1)C(=O)NCCCC[C@H](NC(=O)[C@@H]1Cc2cc(O)c(O)cc2C(C)(C)N1)C(=O)O` [Compound 5Al, 3S-6,7-dihydroxy-1,1-dimethyl-1,2,3,4-tetrahydro-isoquinoline-3-acyl-Lys(Pro-Ala-Leu)], the 50% effective concentration (EC50) in test [1] worked out at 414 ± 97 µM; in test [2], 489 ± 32 µM; in test [3] it was 503 ± 41 µM. Also, in test [4] (setting [5]), the “Weight reduction in thrombus” value is 14.65 ± 2.86^a mg.
In the same order, the values of `C[C@H](NC(=O)[C@@H]1CCCN1)C(=O)N[C@@H](CCC(N)=O)C(=O)NCCCC[C@H](NC(=O)[C@@H]1Cc2cc(O)c(O)cc2C(C)(C)N1)C(=O)O` [Compound 5Am, 3S-6,7-dihydroxy-1,1-dimethyl-1,2,3,4-tetrahydro-isoquinoline-3-acyl-Lys(Pro-Ala-Gln)] are 371 ± 45 µM, 466 ± 77 µM, 647 ± 88 µM and 16.65 ± 2.52^a mg.
In the same order, the values of `C[C@H](NC(=O)[C@@H]1CCCN1)C(=O)N[C@@H](CC(N)=O)C(=O)NCCCC[C@H](NC(=O)[C@@H]1Cc2cc(O)c(O)cc2C(C)(C)N1)C(=O)O` [Compound 5An, 3S-6,7-dihydroxy-1,1-dimethyl-1,2,3,4-tetrahydro-isoquinoline-3-acyl-Lys(Pro-Ala-Asn)] are 383 ± 94 µM, 572 ± 72 µM, 659 ± 89 µM and 16.44 ± 2.32^a mg.
As to `C[C@H](NC(=O)[C@@H]1CCCN1)C(=O)N[C@@H](CC(=O)O)C(=O)NCCCC[C@H](NC(=O)[C@@H]1Cc2cc(O)c(O)cc2C(C)(C)N1)C(=O)O` [Compound 5Ao, 3S-6,7-dihydroxy-1,1-dimethyl-1,2,3,4-tetrahydro-isoquinoline-3-acyl-Lys(Pro-Ala-Asp)], the EC50 was found to be 435 ± 65 µM in test [1], 396 ± 48 µM in test [2] and 473 ± 99 µM in test [3]. In test [4] (setting [5]), the “Weight reduction in thrombus” value is 15.86 ± 2.21^a mg. The “Thrombolytic activity, result in words” value in test [4] (rat) is recorded as “comparable to that of urokinase”.
Regarding `C[C@H](NC(=O)[C@@H]1CCCN1)C(=O)N[C@@H](CCC(=O)O)C(=O)NCCCC[C@H](NC(=O)[C@@H]1Cc2cc(O)c(O)cc2C(C)(C)N1)C(=O)O` [Compound 5Ap, 3S-6,7-dihydroxy-1,1-dimethyl-1,2,3,4-tetrahydro-isoquinoline-3-acyl-Lys(Pro-Ala-Glu)], the concentration for a half-maximal effect (EC50) in test [1] turned out to be 420 ± 73 µM; in test [2], 400 ± 51 µM; in test [3], 477 ± 91 µM. Besides, in test [4] (setting [5]), the “Weight reduction in thrombus” value is given as 16.03 ± 2.14^a mg.
